The supplement of paper PMC10307832

Legend:
Assay in all cases: relative viability (nuclei count vs DMSO), 5 days (fraction); higher = more cells survive
Pemetrexed + Foretinib = compound: Nc1nc2[nH]cc(CCc3ccc(C(=O)N[C@@H](CCC(=O)O)C(=O)O)cc3)c2c(=O)[nH]1 [Pemetrexed] + COc1cc2c(Oc3ccc(NC(=O)C4(C(=O)Nc5ccc(F)cc5)CC4)cc3F)ccnc2cc1OCCCN1CCOCC1 [Foretinib] (partner 0.25 µM)
Procedure, shortened: (§1)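 The day after seeding in 1536-well plates, lung cancer cell lines were treated by pin tool with a single drug, or with a fixed anchor-drug dose together with five library-drug doses (not always all listed) in √10 steps. After 5 days, a combined fix-and-stain solution (final 0.05% Triton X-100, 1% formaldehyde, 1 ug/ml Hoechst) was added. Nuclei counted on 4× images gave relative viability as treated counts over vehicle counts, reported as the median of duplicate plates.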

Idelalisib + AZD7762 = compound: CC[C@H](Nc1ncnc2[nH]cnc12)c1nc2cccc(F)c2c(=O)n1-c1ccccc1 [Idelalisib] + NC(=O)Nc1cc(-c2cccc(F)c2)sc1C(=O)N[C@H]1CCCNC1 [AZD7762] (partner 0.2 µM)
Procedure, shortened: as §1

Idelalisib + Lapatinib = compound: CC[C@H](Nc1ncnc2[nH]cnc12)c1nc2cccc(F)c2c(=O)n1-c1ccccc1 [Idelalisib] + CS(=O)(=O)CCNCc1ccc(-c2ccc3ncnc(Nc4ccc(OCc5cccc(F)c5)c(Cl)c4)c3c2)o1 [Lapatinib] (partner 2 µM)
Procedure, shortened: as §1

Pemetrexed + Dasatinib = compound: Nc1nc2[nH]cc(CCc3ccc(C(=O)N[C@@H](CCC(=O)O)C(=O)O)cc3)c2c(=O)[nH]1 [Pemetrexed] + Cc1nc(Nc2ncc(C(=O)Nc3c(C)cccc3Cl)s2)cc(N2CCN(CCO)CC2)n1 [Dasatinib] (partner 0.075 µM)
Procedure, shortened: as §1

Cell Line	relative viability (Pemetrexed + Foretinib; first compound 0.002 µM)	relative viability (Pemetrexed + Foretinib; first compound 0.006325 µM)	relative viability (Pemetrexed + Foretinib; first compound 0.02 µM)	relative viability (Pemetrexed + Foretinib; first compound 0.06325 µM)	relative viability (Pemetrexed + Foretinib; first compound 0.2 µM)	relative viability (Idelalisib + AZD7762; first compound 0.04 µM)	relative viability (Idelalisib + AZD7762; first compound 0.1265 µM)	relative viability (Idelalisib + AZD7762; first compound 0.4 µM)	relative viability (Idelalisib + AZD7762; first compound 1.265 µM)	relative viability (Idelalisib + AZD7762; first compound 4 µM)	relative viability (Idelalisib + Lapatinib; first compound 0.04 µM)	relative viability (Idelalisib + Lapatinib; first compound 0.1265 µM)	relative viability (Idelalisib + Lapatinib; first compound 0.4 µM)	relative viability (Idelalisib + Lapatinib; first compound 1.265 µM)	relative viability (Idelalisib + Lapatinib; first compound 4 µM)	relative viability (Pemetrexed + Dasatinib; first compound 0.002 µM)	relative viability (Pemetrexed + Dasatinib; first compound 0.006325 µM)	relative viability (Pemetrexed + Dasatinib; first compound 0.02 µM)	relative viability (Pemetrexed + Dasatinib; first compound 0.06325 µM)	relative viability (Pemetrexed + Dasatinib; first compound 0.2 µM)
HCC-366	0.799	0.888	0.963	0.863	0.901	0.248	0.317	0.242	0.106	0.249	1.01	1.02	0.999	1.03	0.987	0.574	0.613	0.683	0.71	0.527
BEN	0.739	0.739	0.83	0.615	0.726	0.748	0.739	0.765	0.584	0.664	0.88	0.635	0.613	0.73	0.602	0.374	0.288	0.345	0.303	0.349
NCI-H2347	0.841	1.06	1.19	0.739	0.558	0.699	0.925	0.69	0.466	0.478	0.942	0.917	0.84	1.01	0.969	0.269	0.169	0.351	0.319	0.272
